Experimental data published in PMC5342726, “Identification of small molecule inhibitors of ERCC1-XPF that inhibit DNA repair and potentiate cisplatin efficacy in cancer cells” (Oncotarget, 2016).

Key:
H460 cells = test: Cisplatin interstrand crosslink repair by comet assay; format: cell-based; settings: compound 15 μM 2 h then cisplatin at IC90; 0-72 h
Method: (B) After treatment, comet assay was performed as described at different time intervals (0, 24, 48 and 72 h). The percentage of interstrand crosslinks remaining was calculated using olive tail moment. Results are represented as mean ± SEM of three independent experiments.
The data is expressed as the percentage of crosslinks remaining at the time points assessed.
Cells were treated with compound (Hit control (9:1 DMSO-glycerol). After incubation at 37°C 1 or Hit 2) and cisplatin or just cisplatin alone in serum for 30 minutes, 2 μL of the pre-incubate was diluted into a free media. […] Cells were further treated with 100 μM

HhaI = test: Secondary screen, fluorescence assay with HhaI endonuclease; format: biochemical; settings: compound titration in the HTS assay
ERCC1-XPF = biological target: T1, ERCC1-XPF (Homo sapiens, UniProt P07992+Q92889); test: Rapid dilution experiment for reversible or irreversible binding; format: biochemical; settings: for recovery of enzymatic activity after rapid dilution: 100-fold enzyme preincubated 30 min with 10 times IC90, diluted 100-fold; for reversibility of binding to ERCC1-XPF: rapid dilution method
T1 construct: made in house; host or cells: Sf9 insect cells, baculovirus (obtained from Aziz Sancar)
T1 sequence (Q92889 1-916): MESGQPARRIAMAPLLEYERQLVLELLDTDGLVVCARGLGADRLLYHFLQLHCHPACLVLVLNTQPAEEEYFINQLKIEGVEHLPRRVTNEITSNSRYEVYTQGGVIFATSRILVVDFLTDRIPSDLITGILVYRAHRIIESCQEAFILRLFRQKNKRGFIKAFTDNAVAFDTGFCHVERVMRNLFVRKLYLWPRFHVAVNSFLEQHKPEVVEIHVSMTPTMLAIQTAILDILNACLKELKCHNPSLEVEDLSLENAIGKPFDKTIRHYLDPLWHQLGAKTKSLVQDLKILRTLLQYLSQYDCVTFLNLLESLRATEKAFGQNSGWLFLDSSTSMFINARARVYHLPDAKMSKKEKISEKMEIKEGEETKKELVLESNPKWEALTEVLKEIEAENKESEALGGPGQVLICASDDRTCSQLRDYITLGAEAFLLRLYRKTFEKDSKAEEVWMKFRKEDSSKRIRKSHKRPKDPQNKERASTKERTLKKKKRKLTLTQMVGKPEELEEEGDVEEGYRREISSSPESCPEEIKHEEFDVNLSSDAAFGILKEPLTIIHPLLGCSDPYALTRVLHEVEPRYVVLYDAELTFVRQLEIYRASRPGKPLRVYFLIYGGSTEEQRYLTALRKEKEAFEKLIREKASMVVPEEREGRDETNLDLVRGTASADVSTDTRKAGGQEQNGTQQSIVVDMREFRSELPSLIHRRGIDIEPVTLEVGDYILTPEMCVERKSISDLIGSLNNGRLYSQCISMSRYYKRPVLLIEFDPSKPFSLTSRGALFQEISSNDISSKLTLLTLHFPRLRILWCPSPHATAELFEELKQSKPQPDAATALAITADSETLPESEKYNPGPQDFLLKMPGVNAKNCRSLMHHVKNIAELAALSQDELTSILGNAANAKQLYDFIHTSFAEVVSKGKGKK
T1 sequence (P07992 1-297): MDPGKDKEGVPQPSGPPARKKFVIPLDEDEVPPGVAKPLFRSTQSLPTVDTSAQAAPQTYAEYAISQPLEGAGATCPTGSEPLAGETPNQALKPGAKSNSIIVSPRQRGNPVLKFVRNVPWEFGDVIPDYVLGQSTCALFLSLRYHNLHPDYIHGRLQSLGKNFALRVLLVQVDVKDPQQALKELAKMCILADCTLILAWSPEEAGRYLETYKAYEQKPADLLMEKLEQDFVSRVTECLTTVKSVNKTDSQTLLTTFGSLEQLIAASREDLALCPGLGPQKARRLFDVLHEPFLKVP
Method: Next, to determine reversible or irreversible binding, we used a rapid dilution method. Here, the amount of enzyme (ERCC1-XPF) is increased 100-fold above what is normally used in a reaction and is pre-incubated for 30 minutes with a concentration of the SMI 10-times greater than the IC90 concentration or with vehicle control. After incubation, the enzyme/inhibitor mixture is diluted 100-fold (i.e., to normal reaction conditions) in the reaction buffer with the DNA substrate at normal reaction conditions. A reversible inhibitor dissociates quickly, allowing immediate recovery of enzymatic activity, whereas a slowly reversible inhibitor allows a gradual increase in activity. In contrast, an irreversible inhibitor prevents recovery of any enzymatic activity. […]
Analysis of DNA binding treatment) was used as 100% intrastrand adducts in each […]
Rapid dilution experiments as described previously […]
of the identified compounds – Hit 1 (NSC143099) and Hit comet assay
2 (NSC16168) to ERCC1-XPF. Briefly, in a 10 μl reaction, ERCC1-XPF concentration was increased 100-fold from Repair of interstrand crosslinks (ICLs) normal reaction conditions of 7.5 nM and mixed with 10 was assessed by alkaline comet assay with some times the IC90 concentration of the compound or vehicle modifications. Cells were treated with compound (Hit control (9:1 DMSO-glycerol). After incubation at 37°C 1 or Hit 2) and cisplatin or just cisplatin alone in serum for 30 minutes, 2 μL of the pre-incubate was diluted into a free media. For treatment with compound and cisplatin, 198 μL solution containing the DNA substrate and reaction cells were treated with compound at 15 µM for 2 hours buffer described in the methods section for HTS assay in a 96 and then cisplatin was added (at IC90 concentration for well plate. The 96-well plate was read in a Spectramax M5 the cell line used) to the media and these were incubated repeatedly for 60 minutes. The data was plotted as increase for another 2 hours. […]
Cisplatin intrastrand adduct measurement by of hydrogen peroxide for 15 minutes to induce random ELISA DNA strand breaks. Cells were then trypsinized, pelleted and resuspended in 1% low melting point agarose. Cell […]
ELISA as described with some modifications. […] Equal amounts of DNA were coated on 96 kept in neutralizing solution (0.4 M Tris–HCl, pH 7.5) well DNA binding ELISA plates in binding buffer (1M for 10 minutes. Slides were then stained with SYBR sodium chloride, 50 mM sodium phosphate buffer, pH green (Trevigen) and comets were analyzed using a 7.4, 0.02% sodium azide) and incubated at 4°C overnight. […]
The wells were blocked with 1% BSA in PBS for 1 hour Fifty cells were analyzed per slide using Komet Assay at room temperature. […]

| SMILES | effect on ICL repair (H460 cells) | effect on HhaI activity (HhaI) | recovery of enzymatic activity after rapid dilution (ERCC1-XPF) | reversibility of binding to ERCC1-XPF (ERCC1-XPF) |
| --- | --- | --- | --- | --- |
| Cc1ccc(S(=O)(=O)Oc2cc(S(=O)(=O)O)cc3cc(S(=O)(=O)O)cc(N)c23)cc1 [NSC16168] | does not have any effect on ICL repair | no effect | recovers slowly | moderately reversible inhibitor |
| Oc1cc(O)c2c(c1)OC(c1ccc(O)c(O)c1)C(O)C2c1c(O)cc(O)c2c1OC(c1ccc(O)c(O)c1)C(O)C2 (centres unmarked) [NSC143099] | ICL repair was significantly reduced | no effect on HhaI activity | virtually no recovery of the enzymatic activity | binds irreversibly |
